Measured values published in patent US20130122541A1, “MICROORGANISM PRODUCTION OF HIGH-VALUE CHEMICAL PRODUCTS, AND RELATED COMPOSITIONS, METHODS AND SYSTEMS” (The Regents of the University of Colorado, priority 2010, published 2013).
Read-outs that look alike come from different tables or passages of the source.

How the values were obtained:
Experiment in all cases: microbe, parasite or virus in culture
E. coli = assay type: cell-based; conditions: anaerobic
Procedure: For MIC evaluations, the final results are expressed in chemical agent concentrations determined by analysis of the stock solution by HPLC (i.e., see Subsection IIIb).
The minimum inhibitory concentration (MIC) was determined anaerobically in a 96 well-plate format. […] Media supplements were added according to levels reported in the Supplements Table, where specified. Overnight cultures of strains were grown in triplicate in 5 mL LB (with antibiotic where appropriate). A 1% (v/v) inoculum was introduced into a 5 ml culture of M9 minimal media.

[1] = system: Yeast strains (S288C background); assay type: cell-based, Saccharomyces cerevisiae; conditions: for MIC: Saccharomyces cerevisiae
Procedure: The minimum inhibitory concentration (MIC) was determined anaerobically in a 96 well-plate format. […] A 1% (v/v) inoculum was introduced into a 5 ml culture of SD minimal media without vitamins. After the cells reached mid-exponential phase, the culture was diluted to an OD600 of 0.200. The cells were further diluted 1:5 and a 10 μL aliquot was used to inoculate each well of a 96 well plate (˜10^4 cells per well) to total volume of 100 uL. […] Plates were incubated for 72 hours at 30 C. […] Plates were sealed in biobag anaerobic chambers that contained gas generators for anaerobic conditions and incubated for 72 hours at 30 C.

E. coli K12 = conditions: Escherichia coli, K12, 24 h

O=C(O)CCO [3-HP, 3-hydroxypropionic acid]
0%: % Increase Over Control ([1]; S288C, SD media, supplements none (control), anaerobic)
67%: % Increase Over Control (E. coli; strain BX_00322.0 (pJ61-speFED))
30 mg/mL: MIC (E. coli K12; read-out: Minimum inhibitory concentration (MIC) of 3-HP for E. coli K12 in M9 minimal media)
50 g/L: MIC ([1]; read-out: MIC Assay Result (g/L 3-HP), strain YX-022 (BY4722, pyes2.1-Aro3 pRS425-ILV6), SD, anaerobic) | MIC ([1]; read-out: MIC Assay Result (g/L 3-HP), strain YX-CJR-007 (BY4709, pyes2.1-ILV6), SD, anaerobic) | MIC ([1]; read-out: MIC Assay Result (g/L 3-HP), strain YX-CJR-010 (BY4709, pyes2.1-Thr1), SD, anaerobic) | MIC ([1]; read-out: MIC Assay Result (g/L 3-HP), strain YX-CJR-011 (BY4709, pyes2.1-Ser2), SD, anaerobic) | MIC ([1]; read-out: MIC Assay Result (g/L 3-HP), strain YX-CJR-013 (BY4709, pyes2.1-ser3), SD, anaerobic) | MIC ([1]; read-out: MIC Assay Result (g/L 3-HP), strain YX-CJR-014 (BY4709, pyes2.1-arg2), SD, anaerobic) | MIC ([1]; read-out: MIC Assay Result (g/L 3-HP), strain YX-CJR-015 (BY4709, pyes2.1-RNR1), SD, anaerobic) | MIC ([1]; read-out: MIC Assay Result (g/L 3-HP), strain YX-CJR-016 (BY4709, pyes2.1-Aro3), SD, anaerobic) | MIC ([1]; read-out: MIC Assay Result (g/L 3-HP), strain YX-CJR-018 (BY4709, pyes2.1-Tyr1), SD, anaerobic) | MIC ([1]; read-out: MIC Assay Result (g/L 3-HP), strain YX-CJR-021 (BY4709, pYes2.1-Trp1), SD, anaerobic)
60 g/L: MIC ([1]; read-out: MIC Assay Result (g/L 3-HP), strain YX-CJR-005 (BY4709, pYes2.1-Met6), SD, anaerobic) | MIC ([1]; read-out: MIC Assay Result (g/L 3-HP), strain YX-CJR-008 (BY4709, pyes2.1-ILV1), SD, anaerobic)
40 g/L: MIC ([1]; read-out: MIC Assay Result (g/L 3-HP), strain YX-CJR-001 (BY4709, pRS426 EV, control), SD, anaerobic)
25%: % Increase Over Control ([1]; strain YX-022 (pyes2.1-Aro3 pRS425-ILV6) vs control, anaerobic) | % Increase Over Control ([1]; strain YX-CJR-007 (pyes2.1-ILV6) vs YX-CJR-001, anaerobic) | % Increase Over Control ([1]; strain YX-CJR-010 (pyes2.1-Thr1) vs YX-CJR-001, anaerobic) | % Increase Over Control ([1]; strain YX-CJR-011 (pyes2.1-Ser2) vs YX-CJR-001, anaerobic) | % Increase Over Control ([1]; strain YX-CJR-013 (pyes2.1-ser3) vs YX-CJR-001, anaerobic) | % Increase Over Control ([1]; strain YX-CJR-014 (pyes2.1-arg2) vs YX-CJR-001, anaerobic) | % Increase Over Control ([1]; strain YX-CJR-015 (pyes2.1-RNR1) vs YX-CJR-001, anaerobic) | % Increase Over Control ([1]; strain YX-CJR-016 (pyes2.1-Aro3) vs YX-CJR-001, anaerobic) | % Increase Over Control ([1]; strain YX-CJR-018 (pyes2.1-Tyr1) vs YX-CJR-001, anaerobic) | % Increase Over Control ([1]; strain YX-CJR-021 (pYes2.1-Trp1) vs YX-CJR-001, anaerobic)
50%: % Increase Over Control ([1]; strain YX-CJR-005 (pYes2.1-Met6) vs YX-CJR-001, anaerobic) | % Increase Over Control ([1]; strain YX-CJR-008 (pyes2.1-ILV1) vs YX-CJR-001, anaerobic)
33%: % Increase Over Control (E. coli; strain BX_00319.0 (pK223-aroH)) | % Increase Over Control (E. coli; strain BX_00320.0 (pK223-metE C645A)) | % Increase Over Control (E. coli; strain BX_00321.0 (pK223-ct-his-thrA)) | % Increase Over Control (E. coli; strain BX_00323.0 (pJ61-aroG)) | % Increase Over Control (E. coli; strain BX_00324.0 (pJ61-thrA)) | % Increase Over Control (E. coli; strain BX_00325.0 (pJ61-asd)) | % Increase Over Control (E. coli; strain BX_00326.0 (pJ61-ilvA)) | % Increase Over Control (E. coli; strain BX_00327.0 (pJ61-cysM)) | % Increase Over Control (E. coli; strain BX_00357.0 (pKK223-aroH*445)) | % Increase Over Control (E. coli; strain BX_00358.0 (pKK223-aroH*447)) | % Increase Over Control (E. coli; strain BX_00359.0 (pKK223-aroH*457)) | % Increase Over Control (E. coli; strain BX_00360.0 (pACYC177 (Kan only)-cynTS)) | % Increase Over Control (E. coli; strain BX_00362.0 (pACYC177 (Kan only)-aroH)) | % Increase Over Control (E. coli; strain BX_00363.0 (pACYC177 (Kan only)-speB)) | % Increase Over Control (E. coli; strain BX_00364.0 (pACYC177 (Kan only)-metE)) | % Increase Over Control (E. coli; strain BX_00365.0 (pACYC177 (Kan only)-metC)) | % Increase Over Control (E. coli; strain BX_00368.0 (pBT-3-cynTS))
38 g/L: MIC ([1]; read-out: Average MIC Assay Result (g/L 3-HP), S288C, SD media, supplements none (control), anaerobic)
20 mg/mL: MIC (E. coli K12; read-out: Minimum inhibitory concentration (MIC) for E. coli K12 in 100 g/L stock solution 3-HP (control))
7%: % Increase Over Control (E. coli; strain BX_00426.0 (ΔnrdR::frt, pSmart-HC-Amp-cadA))
